# Target: T1, recombinant human renin (Homo sapiens, UniProt P00797)
# T1 sequence (P00797 67-406): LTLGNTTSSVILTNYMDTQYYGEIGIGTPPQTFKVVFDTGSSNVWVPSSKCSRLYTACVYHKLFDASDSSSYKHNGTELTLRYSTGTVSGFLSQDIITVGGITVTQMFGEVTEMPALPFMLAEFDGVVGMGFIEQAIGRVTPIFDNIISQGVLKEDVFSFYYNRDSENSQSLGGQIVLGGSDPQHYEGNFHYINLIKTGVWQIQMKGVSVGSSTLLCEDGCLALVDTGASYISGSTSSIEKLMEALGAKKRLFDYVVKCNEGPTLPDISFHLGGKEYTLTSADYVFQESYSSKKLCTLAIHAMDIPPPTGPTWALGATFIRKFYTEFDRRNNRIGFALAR
# Assay: Primary renin inhibition assay: IC50 in buffer, 384 well MTP (AngI measured by EIA)
# Type: biochemical
# Settings: human tetradecapeptide (1-14) substrate, incubated at 37° C. for 3 h, AngI quantified by EIA
# Method: 1. Enzyme Immuno Assay (EIA) to Estimate AngI Accumulation and Renin Inhibition
# 1.1 Preparation of AngI-BSA Conjugate
# 1.3 mg (1 μmol) of AngI [1-10 (Bachem, H-1680)] and 17 mg (0.26 μmol) of BSA (Fluka, 05475) were dissolved in 4 mL of 0.1M phosphate buffer, pH 7.4, after which 2 mL of a 1:100 dilution of glutaraldehyde in H2O (Sigma G-5882) was added dropwise. The mixture was incubated overnight at 4° C., then dialyzed against 2 liters of 0.9% NaCl, twice for 4 h at rt, followed by dialysis against 2 liters of PBS 1× overnight at rt. The solution was then filtered with a Syringe filter, 0.45 μm (Nalgene, Cat. No. 194-2545). The conjugate can be stored in polypropylene tubes in 0.05% sodium azide at 4° C. for at least 12 months.
# 1.2 Preparation of BSA-AngI Coated MTP
# Microtiter plates (MPT384, MaxiSorp™, Nunc) were incubated overnight at 4° C. with 80 μl of AngI (1-10)/BSA conjugate, diluted 1:100'000 in PBS 1× in a teflon beaker (exact dilution dependent on batch of conjugate), emptied, filled with 90 μl of blocking solution [0.5% BSA (Sigma A-2153) in PBS 1×, 0.02% NaN3], and incubated for at least 2 h at rt, or overnight at 4° C. 96 well MTP (MaxiSorp™, Nunc) were coated with 200 μl conjugate and blocked with 250 μl blocking solution as above, except that the blocking solution contained 3% BSA. The plates can be stored in blocking solution at 4° C. for 1 month.
# 1.3 AngI-EIA in 384 Well MTP
# The AngI (1-10)/BSA coated MTP were washed 3 times with wash buffer (PBS 1×, 0.01% Tween 20) and filled with 75 μl of primary antibody solution (anti-AngI antiserum, pre-diluted 1:10 in horse serum), diluted to a final concentration of 1:100'000 in assay buffer (PBS 1×, 1 mM EDTA, 0.1% BSA, pH 7.4). 5 μl of the renin reaction (or standards in assay buffer) (see below) were added to the primary antibody solution and the plates were incubated overnight at 4° C. After the incubation the plates were washed 3 times with wash buffer and incubated with secondary antibody [anti-rabbit IgG, linked to horseradish peroxidase (Amersham Bioscience, NA 934V), diluted 1:2'000 in wash buffer] for 2 h at rt. The plates were washed 3 times with wash buffer and then incubated for 1 h at rt with substrate solution [1.89 mM ABTS (2,2′-azino-di-(3-ethyl-benzthiazolinsulfonate)] (Roche Diagnostics, 102 946) and 2.36 mM H2O2 [30%, (Fluka, 95300] in substrate buffer (0.1M sodium acetate, 0.05M sodium dihydrogen phosphate, pH 4.2). The OD of the plate was read at 405 nm in a microplate reader (FLUOStar Optima from BMG). The production of AngI during the renin reaction was quantified by comparing the OD of the sample with the OD of a standard curve of AngI(1-10), measured in parallel.
# 2. Primary Renin Inhibition Assay: IC50 in Buffer, 384 Well MTP
# The renin assay was adapted from an assay described before (Fischli W. et al., Hypertension, 1991, 18:22-31) and consists of two steps: in the first step, recombinant human renin is incubated with its substrate (commercial human tetradecapeptide renin substrate) to create the product Angiotensin I (AngI). In the second step, the accumulated AngI is measured by an immunological assay (enzyme immuno assay, EIA). The detailed description of this assay is found below. The EIA is very sensitive and well suited for renin activity measurements in buffer or in plasma. Due to the low concentration of renin used in this assay (2 fmol per assay tube or 10 pM) it is possible to measure inhibitor affinities in this primary assay down to low pM concentration.
# Recombinant human renin (3 pg/μl) in assay buffer (PBS 1×, 1 mM EDTA, 0.1% BSA, pH 7.4), human tetradecapeptide (1-14) substrate (Bachem, M-1120) [5 μM in 10 mM HCl], hydroxyquinoline sulfate (Fluka, 55100) [30 mM in H2O] and assay buffer were premixed at 4° C. at a ratio of 100:30:10:145. 47.5 μl per well of this premix was transferred into polypropylene plates (MTP384, Nunc). […]
row,IC50 [nM],Compound
1,0.18,"O=C(NCc1ccc(Cl)c(CN(C(=O)[C@H]2CNCC[C@@H]2c2ccc(OCc3cc(-c4c(F)ccc(F)c4Cl)no3)cc2)C2CC2)c1)C1CC1 [Example 83, (3R,4S)-4-{4-[3-(2-Chloro-3,6-difluoro-phenyl)-isoxazol-5-ylmethoxy]-phenyl}-piperidine-3-carboxylic acid {2-chloro-5-[(cyclopropanecarbonyl-amino)-methyl]-benzyl}-cyclopropyl-amide]"
2,0.2,"COCCCc1ccc(Cl)c(CN(C(=O)C2=C(c3ccc(OCCOc4c(Cl)cc(C)cc4Cl)cc3)C[C@@H]3CNC[C@H]2N3)C2CC2)c1 [Example 4, (1R,5S)-7-{4-[2-(2,6-Dichloro-4-methyl-phenoxy)-ethoxy]-phenyl}-3,9-diaza-bicyclo[3.3.1]non-6-ene-6-carboxylic acid [2-chloro-5-(3-methoxy-propyl)-benzyl]-cyclopropyl-amide]"

# — patent publication US7968720B2, “Secondary amines as renin inhibitors” (Actelion Pharmaceuticals Ltd., priority 2006, dated 2011)
